Test results as given in US8778966B2, “Quinolinone derivatives as PARP and tank inhibitors” (Janssen Pharmaceutica, NV, priority 2007, dated 2014).

Assays:
[1] = target: T1, Human PARP-1 enzyme (Homo sapiens, UniProt P09874); assay: In vitro Scintillation Proximity Assay (SPA) for PARP-1 inhibitory activity; assay type: biochemical; conditions: for IC50: read-out: in vitro SPA assay PARP-1 pIC50 (converted)
T1 construct: purchased Trevigen
Outline: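 SPA assay: nicked-DNA-activated PARP-1 (0.1–0.2 μg/ml) ADP-ribosylates biotinylated histones (2 μg/ml) using [3H]-NAD+, 20 min at RT in Tris pH 8/DTT/MgCl2, stopped with 2 mM NAD+. Blank-subtracted cpm expressed as % control; IC50 by linear interpolation, reported as pIC50 (10−5 to 3×10−9 M tested).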

[2] = tested on: HCT116 cells; assay: Antiproliferative activity, Alamar Blue assay, HCT116 cells; assay type: cell-based, human; parameters: key to HCT116 antiproliferative activity pIC50: pIC50 = -log IC50 (IC50: conc. reducing growth to 50% of control); conditions: for IC50: Homo sapiens, HCT-116, HCT116 cells, read-out: HCT116 antiproliferative activity pIC50 (converted)
Experimental: Human colon carcinoma HCT116 cells obtained from the ATCC were cultured in McCoy's 5 A medium supplemented with 2 mM L-Glutamine, 50 μg/ml gentamicin and 10% heat inactivated fetal calf serum.
Resazurin was purchased from Aldrich (Prod. No. 199303). Potassium ferrocyanide, potassium ferricyanide, KH2PO4 and K2HPO4 were purchased from Sigma (Prod. Nos. P9387, P8131, P5655 and P8281, respectively).
Potassium Phosphate Buffer 0.1 M (PPB) was made as follows: 2.72 gram KH2PO4 and 13.86 gram K2HPO4 were dissolved in 500 ml milli-Q H2O, the pH was adjusted to pH 7.4 and the volume was brought to 1 litre with milli-Q H2O; the buffer was filter sterilised and stored at room temperature. Resazurin stock solution (PPB-A) was prepared fresh by dissolving 45 mg resazurin in 15 ml PBS. 30 mM potassium ferricyanide (PPB-B) was prepared by dissolving 0.987 gram potassium ferricyanide in 100 ml PPB. 30 mM potassium ferrocyanide (PPB-C) was prepared by dissolving 1.266 gram potassium ferrocyanide in 100 ml PPB.
Mixture of PPB-A, PPB-B and PPB-C was prepared by mixing equal volumes of the respective solutions. Resazurin work solution (herein termed “Alamar Blue” solution) was prepared by diluting said mixture 20×(vol/vol) in PPB and filter sterilising; the Alamar Blue solution could be kept at 4° C. for a maximum of 2 weeks.
For experiments in 384 wells plates the cells were seeded at a density of 4.5×10^3 cells/ml in Falcon 384-well culture plates (Life Technologies, Merelbeke, Belgium), black with clear bottom, in 45 μl culture medium. Cells were allowed to adhere to plastic for 24 hr. The tested compound was pre-diluted (1/50 in culture medium) and 5 μl pre-diluted compound was added to the wells. Following 4-day incubation, 10 μl of the Alamar Blue solution was added to each well and the cells were further incubated for 4 hrs (HCT116) or 24 hrs (PC-3) at 37° C. The fluorescence intensity was measured for each well on a Fluorescence plate reader (Fluorskan, Labsystems, 540 nm excitation and 590 nm emission)
The antiproliferative activity was calculated as percentage of remaining viable cells in treated versus control (untreated cells) conditions. Within an experiment, the result for each experimental condition is the mean of 3 replicate wells. When appropriate, the experiments were repeated to establish full concentration-response curves. When appropriate, IC50-values (concentration of the drug, needed to reduce cell growth to 50% of the control) were computed using probit analysis for graded data (Finney, D. J., Probit Analyses, 2nd Ed. Chapter 10, Graded Responses, Cambridge University Press, Cambridge 1962). Herein the effects of test compounds are expressed as pIC50 (the negative log value of the IC50-value) (see Table 2).

T1 sequence (P09874 whole entry): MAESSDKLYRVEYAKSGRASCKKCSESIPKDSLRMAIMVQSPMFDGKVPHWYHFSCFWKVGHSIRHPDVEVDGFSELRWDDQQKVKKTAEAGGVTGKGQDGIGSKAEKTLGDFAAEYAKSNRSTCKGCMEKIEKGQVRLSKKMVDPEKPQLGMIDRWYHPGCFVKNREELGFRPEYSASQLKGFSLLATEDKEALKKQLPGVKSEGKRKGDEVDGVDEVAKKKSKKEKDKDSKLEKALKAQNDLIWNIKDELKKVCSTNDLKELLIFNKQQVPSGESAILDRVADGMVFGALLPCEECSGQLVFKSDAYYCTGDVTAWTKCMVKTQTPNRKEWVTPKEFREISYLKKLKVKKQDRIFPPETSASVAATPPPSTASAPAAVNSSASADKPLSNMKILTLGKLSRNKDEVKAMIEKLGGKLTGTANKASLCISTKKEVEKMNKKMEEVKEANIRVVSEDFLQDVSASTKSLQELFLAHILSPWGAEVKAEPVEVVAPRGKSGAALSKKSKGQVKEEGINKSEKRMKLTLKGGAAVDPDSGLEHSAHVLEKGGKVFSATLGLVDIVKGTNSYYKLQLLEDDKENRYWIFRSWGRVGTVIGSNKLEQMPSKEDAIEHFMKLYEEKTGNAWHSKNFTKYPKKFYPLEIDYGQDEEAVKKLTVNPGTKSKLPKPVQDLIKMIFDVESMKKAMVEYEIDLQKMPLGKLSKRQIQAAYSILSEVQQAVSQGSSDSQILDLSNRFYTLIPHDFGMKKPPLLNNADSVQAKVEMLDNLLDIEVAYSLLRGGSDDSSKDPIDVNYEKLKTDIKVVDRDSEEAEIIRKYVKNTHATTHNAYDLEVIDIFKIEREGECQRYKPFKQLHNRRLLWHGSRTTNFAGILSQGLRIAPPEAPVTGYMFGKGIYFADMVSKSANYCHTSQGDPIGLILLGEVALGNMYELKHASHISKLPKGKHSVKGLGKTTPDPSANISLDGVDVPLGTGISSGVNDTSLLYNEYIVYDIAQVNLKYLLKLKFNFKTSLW

Compound | IC50 [1] | IC50 [2] | in vitro SPA assay PARP-1 pIC50 [1] | HCT116 antiproliferative activity pIC50 ([2]; HCT116 cells)
C#Cc1cccc(CC(C)(C#N)c2ccc3cc(CC)c(=O)[nH]c3c2)c1 (racemic) [Compound 168] | 631 nM | 31.6 nM |  | 
CCc1cc2ccc(C(C)(C#N)CC3COc4ccccc4O3)cc2[nH]c1=O (single isomer, unassigned) [Compound 48] |  |  | 6.4 | 5.8
CCc1cc2ccc([C@@](C)(C#N)CCOc3ccccc3)cc2[nH]c1=O (single isomer, unassigned) [Compound 150] | 501 nM | 794 nM |  | 
Cc1cc2ccc([C@@](C)(C#N)CCOc3ccccc3)cc2[nH]c1=O (single isomer, unassigned) [Compound 164] | 1580 nM | 1000 nM |  | 
CCc1cc2ccc(C(C)(C#N)Cc3cccc(C(=O)O)c3)cc2[nH]c1=O (stereo not shown) [Compound 10] | 79.4 nM | > 10000 nM |  | 
CCc1cc2ccc(C(C)(C#N)Cc3cccc(-c4nc(C)no4)c3)cc2[nH]c1=O (stereo not shown) [Compound 11] | 631 nM | 1580 nM |  | 
CCc1cc2ccc(C(C)(C#N)Cc3cccc(C(=O)OC)c3)cc2[nH]c1=O (stereo not shown) [Compound 12] | 501 nM | 31.6 nM |  | 
CCc1cc2ccc(C(C)(C#N)Cc3cccc(C(=O)NC)c3)cc2[nH]c1=O (stereo not shown) [Compound 13] | 398 nM | 7940 nM |  | 
CCc1cc2ccc(C(C)(C#N)Cc3cccc(NS(C)(=O)=O)c3)cc2[nH]c1=O (stereo not shown) [Compound 14] | 398 nM | > 10000 nM |  | 
CCc1cc2ccc(C(C)(C#N)Cc3cccc(N)c3)cc2[nH]c1=O (stereo not shown) [Compound 15] | 316 nM | 1000 nM |  | 
CCc1cc2ccc(C(C)(C#N)Cc3cccc(NC(=O)N4CCOCC4)c3)cc2[nH]c1=O (stereo not shown) [Compound 16] | 158 nM | > 10000 nM |  | 
CCc1cc2ccc(C(C)(C#N)Cc3ccccc3Br)cc2[nH]c1=O (stereo not shown) [Compound 104] | 631 nM | 398 nM |  | 
CCc1cc2ccc(C(C)(C#N)Cc3ccccc3C)cc2[nH]c1=O (stereo not shown) [Compound 105] | 794 nM | 251 nM |  | 
CCc1cc2ccc(C(C)(C#N)Cc3ccccc3F)cc2[nH]c1=O (stereo not shown) [Compound 106] | 398 nM | 398 nM |  | 
CCc1cc2ccc(C(C)(C#N)Cc3cccc(C)c3)cc2[nH]c1=O (stereo not shown) [Compound 107] | 251 nM | 200 nM |  | 
CCc1cc2ccc(C(C)(C#N)Cc3ccc(C(F)(F)F)cc3)cc2[nH]c1=O (stereo not shown) [Compound 108] | 1260 nM | 6310 nM |  | 
CCc1cc2ccc(C(C)(C#N)Cc3cccc(C(F)(F)F)c3)cc2[nH]c1=O (stereo not shown) [Compound 109] | 794 nM | 251 nM |  | 
CCc1cc2ccc(C(C)(C#N)Cc3cccc(OC(F)(F)F)c3)cc2[nH]c1=O (stereo not shown) [Compound 110] | 794 nM | 158 nM |  | 
CCc1cc2ccc(C(C)(C#N)Cc3ccc(C#N)cc3)cc2[nH]c1=O (stereo not shown) [Compound 111] | 251 nM | 5010 nM |  | 
CCc1cc2ccc(C(C)(C#N)Cc3cccc(F)c3)cc2[nH]c1=O (stereo not shown) [Compound 112] | 200 nM | 316 nM |  | 
CCc1cc2ccc(C(C)(C#N)Cc3cccc(OC)c3)cc2[nH]c1=O (stereo not shown) [Compound 113] | 251 nM | 398 nM |  | 
CCc1cc2ccc(C(C)(C#N)Cc3ccc(OC(F)(F)F)cc3)cc2[nH]c1=O (stereo not shown) [Compound 114] | 1000 nM | 1580 nM |  | 
CCc1cc2ccc(C(C)(C#N)Cc3ccc(F)cc3)cc2[nH]c1=O (stereo not shown) [Compound 115] | 316 nM | 631 nM |  | 
CCc1cc2ccc(C(C)(C#N)Cc3c(F)c(F)c(F)c(F)c3F)cc2[nH]c1=O (stereo not shown) [Compound 116] | 1000 nM | 631 nM |  | 
CCc1cc2ccc(C(C)(C#N)Cc3ccc(C)cc3)cc2[nH]c1=O (stereo not shown) [Compound 117] | 398 nM | 2510 nM |  | 
CCc1cc2ccc(C(C)(C#N)Cc3ccc(Br)cc3)cc2[nH]c1=O (stereo not shown) [Compound 118] | 398 nM | 2000 nM |  | 
CCc1cc2ccc(C(C)(C#N)Cc3ccc(OC)cc3)cc2[nH]c1=O (stereo not shown) [Compound 119] | 316 nM | 2000 nM |  | 

Compound | IC50 [1] | IC50 [2] | in vitro SPA assay PARP-1 pIC50 [1] | HCT116 antiproliferative activity pIC50 ([2]; HCT116 cells)
CCc1cc2ccc(C(C)(C#N)Cc3cccc(F)c3F)cc2[nH]c1=O (stereo not shown) [Compound 120] | 631 nM | 251 nM |  | 
CCc1cc2ccc(C(C)(C#N)Cc3cccc(Cl)c3Cl)cc2[nH]c1=O (stereo not shown) [Compound 121] | 1580 nM | 158 nM |  | 
CCc1cc2ccc(C(C)(C#N)Cc3ccc4ccccc4c3)cc2[nH]c1=O (stereo not shown) [Compound 122] | 1260 nM | 251 nM |  | 
CCc1cc2ccc(C(C)(C#N)Cc3ccc4c(c3)nnn4C)cc2[nH]c1=O (stereo not shown) [Compound 123] | 158 nM | 3980 nM |  | 
CCc1cc2ccc(C(C)(C#N)Cc3ccc4c(c3)OCCO4)cc2[nH]c1=O (stereo not shown) [Compound 124] | 501 nM | 501 nM |  | 
CCc1cc2ccc(C(C)(C#N)Cc3cc(C)cc(C)c3)cc2[nH]c1=O (stereo not shown) [Compound 125] | 1000 nM | 200 nM |  | 
CCc1cc2ccc(C(C)(C#N)Cc3cc(F)cc(Cl)c3)cc2[nH]c1=O (stereo not shown) [Compound 126] | 794 nM | 200 nM |  | 
CCc1cc2ccc(C(C)(C#N)Cc3cc(F)cc(C(F)(F)F)c3)cc2[nH]c1=O (stereo not shown) [Compound 127] | 1000 nM | 501 nM |  | 
CCc1cc2ccc(C(C)(C#N)Cc3cc(F)cc(F)c3)cc2[nH]c1=O (stereo not shown) [Compound 128] | 501 nM | 126 nM |  | 
CCc1cc2ccc(C(C)(C#N)Cc3cccc(S(C)(=O)=O)c3)cc2[nH]c1=O (stereo not shown) [Compound 129] | 631 nM | 1580 nM |  | 
CCc1cc2ccc(C(C)(C#N)Cc3cccc(Cl)c3F)cc2[nH]c1=O (stereo not shown) [Compound 130] | 631 nM | 158 nM |  | 
CCc1cc2ccc(C(C)(C#N)Cc3cc(C(F)(F)F)cc(C(F)(F)F)c3)cc2[nH]c1=O (stereo not shown) [Compound 131] | 1580 nM | 6310 nM |  | 
CCc1cc2ccc(C(C)(C#N)Cc3cccc(C)c3F)cc2[nH]c1=O (stereo not shown) [Compound 132] | 1260 nM | 398 nM |  | 
CCc1cc2ccc(C(C)(C#N)Cc3cc(Br)cc(Br)c3)cc2[nH]c1=O (stereo not shown) [Compound 133] | 794 nM | 251 nM |  | 
CCc1cc2ccc(C(C)(C#N)Cc3cccc(C(F)(F)F)c3F)cc2[nH]c1=O (stereo not shown) [Compound 134] | 1260 nM | 501 nM |  | 
CCc1cc2ccc(C(C)(C#N)Cc3c(Cl)cccc3Cl)cc2[nH]c1=O (stereo not shown) [Compound 135] | 1000 nM | 316 nM |  | 
CCc1cc2ccc(C(C)(C#N)Cc3c(Cl)cccc3Br)cc2[nH]c1=O (stereo not shown) [Compound 136] | 1580 nM | 316 nM |  | 
CCc1cc2ccc(C(C)(C#N)Cc3ccc(F)cc3F)cc2[nH]c1=O (stereo not shown) [Compound 137] | 1260 nM | 251 nM |  | 
CCc1cc2ccc(C(C)(C#N)Cc3c(F)cccc3F)cc2[nH]c1=O (stereo not shown) [Compound 138] | 1260 nM | 251 nM |  | 
CCc1cc2ccc(C(C)(C#N)Cc3ccc(F)cc3Br)cc2[nH]c1=O (stereo not shown) [Compound 139] | 1260 nM | 126 nM |  | 
CCc1cc2ccc(C(C)(C#N)Cc3cccc(Cl)c3)cc2[nH]c1=O (stereo not shown) [Compound 140] | 631 nM | 200 nM |  | 
CCc1cc2ccc(C(C)(C#N)Cc3cc(Cl)cc(Cl)c3)cc2[nH]c1=O (stereo not shown) [Compound 141] | 1000 nM | 126 nM |  | 
CCOc1ccccc1OCCC(C)(C#N)c1ccc2cc(CC)c(=O)[nH]c2c1 (stereo not shown) [Compound 142] | 631 nM | 316 nM |  | 
CCc1cc2ccc(C(C)(C#N)CCOc3cccc(C)c3)cc2[nH]c1=O (stereo not shown) [Compound 143] | 794 nM | 501 nM |  | 
CCc1cc2ccc(C(C)(C#N)CCOc3ccc(F)cc3)cc2[nH]c1=O (stereo not shown) [Compound 144] | 251 nM | 501 nM |  | 
CCc1cc2ccc(C(C)(C#N)CCOc3ccccc3)cc2[nH]c1=O (stereo not shown) [Compound 145] | 200 nM | 398 nM |  | 
